The source made the active and inactive calls. The calls are words filed in the database; no cut-off is given here.
Tests used:
KYSE-450 = test: Antiproliferative activity against human KYSE-450 cells assessed as inhibition of cell growth incubated for 48 hrs by MTT assay; type: functional, cell-based; details: KYSE-450, 48 h
MGC-803 = test: Antiproliferative activity against human MGC-803 cells assessed as inhibition of cell growth incubated for 48 hrs by MTT assay; type: functional, cell-based; details: MGC-803, 48 h
HCT-116 [1] = test: Antiproliferative activity against human HCT-116 cells assessed as inhibition of cell growth incubated for 48 hrs by MTT assay; type: functional, cell-based; details: HCT-116, 48 h
HCT-116 [2] = test: Induction of cell death in human HCT-116 cells at 2 to 6 micromol/L measured after 48 hrs by Annexin V-FITC/PI staining based flow cytometry analysis; type: functional; details: dose 2-6 µmol/L
HCT-116 [3] = test: Antiproliferative activity against human HCT-116 cells assessed as inhibition of cell growth measured upto 48 hrs by MTT assay; type: functional, cell-based; details: dose 2-6 µmol/L
HCT-116 [4] = test: Downregulation of TAZ protein expression in human HCT-116 cells at 2 to 6 micromol/L measured after 48 hrs by Western blot analysis; type: functional, cell-based; details: dose 2-6 µmol/L
HCT-116 [5] = test: Downregulation of YAP protein expression in human HCT-116 cells at 2 to 6 micromol/L measured after 48 hrs by Western blot analysis; type: functional, cell-based; details: dose 2-6 µmol/L
HCT-116 [6] = test: Induction of cell cycle arrest in human HCT-116 cells assessed as increase in cells at G1 phase at 2 to 6 micromol/L measured after 48 hrs by PI staining based flow cytometry analysis relative to control; type: functional; details: dose 2-6 µmol/L, at 2 to 6 µM
HCT-116 [7] = test: Downregulation of YAP gene transcription in human HCT-116 cells at 6 micromol/L measured after 48 hrs by RT-qPCR analysis; type: functional, cell-based; details: dose 6.0 µmol/L
HCT-116 [8] = test: Antiproliferative activity against human HCT-116 cells assessed as inhibition of cell growth at 2 to 6 micromol/L by MTT assay; type: functional, cell-based; details: dose 2-6 µmol/L, time 0-48 hrs, TDE = time-dependent effect
HCT-116 [9] = test: Induction of cell cycle arrest in human HCT-116 cells assessed as downregulation of CDK4 level at 2 to 6 micromol/L measured after 48 hrs by Western blot analysis; type: functional, cell-based; details: dose 2-6 µmol/L
HCT-116 [10] = test: Inhibition of colony formation in human HCT-116 cells at 2 to 8 micromol/L measured daily for 7 days by crystal violet staining based analysis; type: functional, cell-based; details: dose 2-8 µmol/L, time 7.0 day
HCT-116 [11] = test: Activation of Hippo signaling pathway in human HCT-116 cells assessed as increase in YAP phosphorylation level at 2 to 6 micromol/L incubated for 48 hrs by Western blotting analysis; type: cell-based; details: dose 2-6 µmol/L

O=c1[nH]cc(F)c(=O)[nH]1 [FLUOROURACIL]
IC50 (KYSE-450): 32.6 µM
IC50 (MGC-803): 3.88 µM
IC50 (HCT-116 [1]): 9.63 µM

C=CCc1ccc(O)c(-c2ccc3c(c2)C[C@@H](CSc2nnc(-c4ccccc4C)o2)O3)c1
IC50 (KYSE-450): > 50 µM
IC50 (MGC-803): 25.7 µM
IC50 (HCT-116 [1]): 47.7 µM

C=CCc1ccc(O)c(-c2ccc3c(c2)C[C@@H](CSc2nnc(-c4ccc(C)cc4)o2)O3)c1
IC50 (KYSE-450): > 50 µM
IC50 (MGC-803): 29.5 µM
IC50 (HCT-116 [1]): 59.6 µM

C=CCc1ccc(O)c(-c2ccc3c(c2)C[C@@H](CSc2nnc(-c4ccccc4F)o2)O3)c1
IC50 (KYSE-450): 38.7 µM
IC50 (MGC-803): 16.2 µM
IC50 (HCT-116 [1]): 20.1 µM

C=CCc1ccc(O)c(-c2ccc3c(c2)C[C@@H](CSc2nnc(-c4ccc([N+](=O)[O-])cc4)o2)O3)c1
Activity (HCT-116 [2]): Active
IC50 (KYSE-450): > 50 µM
Activity (HCT-116 [3]): Dose-Dependent Effect
Activity (HCT-116 [4]): Active
IC50 (MGC-803): > 50 µM
Activity (HCT-116 [5]): Active
IC50 (HCT-116 [1]): 6.1 µM
Activity (HCT-116 [6]): >20%
Activity (HCT-116 [7]): Active
Activity (HCT-116 [8]): Tde
Activity (HCT-116 [9]): Active
inhibition (HCT-116 [10]): Active
Activity (HCT-116 [11]): inactive

C=CCc1ccc(O)c(-c2ccc3c(c2)C[C@@H](CSc2nnc(-c4ccc(F)cc4)o2)O3)c1
IC50 (KYSE-450): > 50 µM
IC50 (MGC-803): 25.1 µM
IC50 (HCT-116 [1]): 27.4 µM

C=CCc1ccc(O)c(-c2ccc3c(c2)C[C@@H](CSc2nnc(-c4cccc(Cl)c4)o2)O3)c1
IC50 (KYSE-450): > 50 µM
IC50 (MGC-803): 24.6 µM
IC50 (HCT-116 [1]): 43.4 µM

C=CCc1ccc(O)c(-c2ccc3c(c2)C[C@@H](CSc2nnc(-c4ccc(Br)cc4)o2)O3)c1
IC50 (KYSE-450): > 50 µM
IC50 (MGC-803): 44.6 µM
IC50 (HCT-116 [1]): 52.2 µM

C=CCc1ccc(O)c(-c2ccc3c(c2)C[C@@H](CSc2nnc(-c4ccc(Cl)cc4Cl)o2)O3)c1
IC50 (KYSE-450): > 50 µM
IC50 (MGC-803): 21.5 µM
IC50 (HCT-116 [1]): > 50 µM

C=CCc1ccc(O)c(-c2ccc3c(c2)C[C@@H](CSc2nnc(-c4ccccc4Br)o2)O3)c1
IC50 (KYSE-450): > 50 µM
IC50 (MGC-803): > 50 µM
IC50 (HCT-116 [1]): > 50 µM

C=CCc1ccc(O)c(-c2ccc(O)c(CC=C)c2)c1 [HONOKIOL]
IC50 (KYSE-450): 32.4 µM
IC50 (MGC-803): 11.8 µM
IC50 (HCT-116 [1]): 17.2 µM

C=CCc1ccc(O)c(-c2ccc3c(c2)C[C@@H](CSc2nnc(-c4ccccc4)o2)O3)c1
IC50 (KYSE-450): > 50 µM
IC50 (MGC-803): 27.5 µM
IC50 (HCT-116 [1]): 46.7 µM

C=CCc1ccc(O)c(-c2ccc3c(c2)C[C@@H](CSc2nnc(-c4ccc(C#N)cc4)o2)O3)c1
IC50 (KYSE-450): > 50 µM
IC50 (MGC-803): > 50 µM
IC50 (HCT-116 [1]): > 50 µM

C=CCc1ccc(O)c(-c2ccc3c(c2)C[C@@H](CSc2nnc(-c4ccc(OC)cc4)o2)O3)c1
IC50 (KYSE-450): > 50 µM
IC50 (MGC-803): 39.7 µM
IC50 (HCT-116 [1]): > 50 µM

C=CCc1ccc(O)c(-c2ccc3c(c2)C[C@@H](CSc2nnc(-c4cccc(F)c4)o2)O3)c1
IC50 (KYSE-450): > 50 µM
IC50 (MGC-803): 23.8 µM
IC50 (HCT-116 [1]): 29.4 µM

C=CCc1ccc(O)c(-c2ccc3c(c2)C[C@@H](CSc2nnc(-c4cccc(OC)c4)o2)O3)c1
IC50 (KYSE-450): > 50 µM
IC50 (MGC-803): > 50 µM
IC50 (HCT-116 [1]): > 50 µM

C=CCc1ccc(O)c(-c2ccc3c(c2)C[C@@H](CSc2nnc(-c4ccc(F)cc4Cl)o2)O3)c1
IC50 (KYSE-450): > 50 µM
IC50 (MGC-803): 20.4 µM
IC50 (HCT-116 [1]): > 50 µM

C=CCc1ccc(O)c(-c2ccc3c(c2)C[C@@H](CSc2nnc(-c4ccc(Cl)cc4)o2)O3)c1
IC50 (KYSE-450): > 50 µM
IC50 (MGC-803): 27 µM
IC50 (HCT-116 [1]): 37.9 µM

C=CCc1ccc(O)c(-c2ccc3c(c2)C[C@@H](CSc2nnc(-c4cccc(C)c4)o2)O3)c1
IC50 (KYSE-450): > 50 µM
IC50 (MGC-803): 20.5 µM
IC50 (HCT-116 [1]): > 50 µM

C=CCc1ccc(O)c(-c2ccc3c(c2)C[C@@H](CSc2nnc(-c4cccc(Br)c4)o2)O3)c1
IC50 (KYSE-450): > 50 µM
IC50 (MGC-803): 20.4 µM
IC50 (HCT-116 [1]): 57.6 µM

C=CCc1ccc(O)c(-c2ccc3c(c2)C[C@@H](CSc2nnc(-c4ccccc4OC)o2)O3)c1
IC50 (KYSE-450): > 50 µM
IC50 (MGC-803): > 50 µM
IC50 (HCT-116 [1]): > 50 µM

C=CCc1ccc(O)c(-c2ccc3c(c2)C[C@@H](CSc2nnc(-c4ccncc4)o2)O3)c1
IC50 (KYSE-450): > 50 µM
IC50 (MGC-803): 40.6 µM
IC50 (HCT-116 [1]): > 50 µM

C=CCc1ccc(O)c(-c2ccc3c(c2)C[C@@H](CSc2nnc(-c4cccnc4)o2)O3)c1
IC50 (KYSE-450): > 50 µM
IC50 (MGC-803): 8.63 µM
IC50 (HCT-116 [1]): 12.3 µM

C=CCc1ccc(O)c(-c2ccc3c(c2)C[C@@H](CSc2nnc(-c4ccccc4Cl)o2)O3)c1
IC50 (KYSE-450): > 50 µM
IC50 (MGC-803): > 50 µM
IC50 (HCT-116 [1]): > 50 µM

From ChEMBL document CHEMBL5550153, “Semisynthesis and biological evaluation of novel honokiol thioethers against colon cancer cells HCT116 via inhibiting the transcription and expression of YAP protein” (Bioorg Med Chem, 2024)
